Legend:
mice = experiment: Social Recognition Test in mice; format: in vivo; conditions: oral, dose 0.3 mg/kg, familiar partner at 24 h vs time 0
Protocol: Assay: Social interactions between two experimental animals are influenced by their degree of familiarity: the better they know each other, the less time they spend on mutual scrutiny at each meeting. […] Memory enhancing agents (i.e. oxiracetam) facilitate learning to the extent that the previously met (familiar) partner is still remembered after 24 h, whereas in vehicle treated control animals the memory usually fades after less than 1 hour (Thor and Holloway, 1982) or after 2-3 hours.
Baseline-test: Pairs consisting of one adult and one young mouse were assigned at random to the experimental and control groups. In each pair only the adult mouse was orally treated 1 hour before the trial with either vehicle or the test compound. The duration of active contacts of the adult mouse with the young mouse was manually recorded over a period of 3 min, including the following behavioural, approach-related items: sniffing, nosing, grooming, licking, pawing and playing, anogenital exploration and orientation toward the young mouse; orientation, thereby, was defined as tip of nose of the adult mouse less than approximately 1 cm distant from the young mouse's body. […]

[1] = Loss on drying / initial water content; format: physicochemical; set-up: Initial water content: unit not given here

Cc1ccc(-c2ccc(O[C@H]3CN4CCC3CC4)cn2)cc1 [Compound A, (R)-3-(6-(4-methylphenyl)-pyridin-3-yloxy)-1-aza-bicyclo[2.2.2]octane]
Reduction in time scrutinizing in % ± SEM at 24 h (mice): 36 ± 6%
Loss on drying (LOD) of a sample [1]: 0.1%
Initial water content ([1]; comparison table, Example 7): 0.1
